Data reported in article PMC12598805, “Crystal Structure–Activity Relationship of Some MeO Phenylacrylonitriles: Dual Antimicrobial–Cytotoxic Effects and in Silico Perspectives” (ChemistryOpen, 2025).
Values after ≈ are worked out from the molar mass of the structure shown. Where two headings read alike, the source gives them in different places.

What was measured:
[1] = system: human breast carcinoma (MCF‐7) cells; assay: Cytotoxicity, CCK8 cell viability; format: cell-based; conditions: for IC50: Homo sapiens, MCF7, read-out: Cytotoxic activity IC50
Excerpt: (§1) We investigated the cytotoxic effects of acrylonitrile derivatives 2(a–c) on human lung carcinoma (A549, CCL‐185) cells purchased from American Culture Collection and human breast carcinoma (MCF‐7) cells purchased from Republic of Turkey Ministry of Agriculture and Forestry Şap Institute, (HUKUK, 00092502), In addition, mouse fibroblast cells (L929, CCL‐1) purchased from American Culture Collection were used to observe the effects of the compounds on healthy cells. In 25 T Flask, A549 cells were grown in dulbecco's modified eagle's medium, MCF‐7, and L929 cells were grown in eagle's minimum essential medium (EMEM), 10% fetal bovine serum and 1% Penicillin‐Streptomycin at 37 °C in a 5% CO2 and 100% humidified incubator. Cell proliferation was checked every day. Cells were taken into the experiment when the cell density reached 70% to 80%. (See Supporting Information for experimental preparation of biological studies).
(§2) The compounds 2a, 2b, and 2c were dissolved in 99.8% Dimethyl sulfoxide (DMSO) respectively, as
(§3) 10 mM main stock. To prepare the doses of acrylonitrile compounds used in the experiment to be
(§4) applied to the cells, five different concentrations of 31.25; 62.5; 125; 250 and 500 μM were prepared
(§5) by diluting the main stock solutions (10 mM) with the medium selected according to the cells. 5-
(§6) Fluorouracil (5-FU) was selected as a positive control in the study. After the 5-FU main stock solution
(§7) was dissolved with DMSO to be 10 mM, the concentrations to be used were diluted with the selected
(§8) media and made ready for the experimental plan. The concentrations used for 5-FU were prepared in
(§9) the same doses used for acrylonitrile derivatives. For the negative control group, groups containing
(§10) only media and no substance were used. Prepared acrylonitrile compounds and 5-FU concentrations
(§11) were added to the wells in three replicates for each dose, and their effects on cell viability at 24 and 48
(§12) Trypan blue solution (Gibco, 1525061) was used to distinguish between living and dead cells in the
(§13) study. Trypan blue passes uncontrollably through the membrane of dead cells that have lost their cell
(§14) membrane integrity and stains the cell blue. Living cells, on the other hand, are not stained because
(§15) Live cell counts were performed using trypan blue using a
(§16) cell counter (Logos Luna II).
(§17) In order to detach the cells adhering to the flasks from the bottom, 500 μL of 0.25% Trypsin-EDTA
(§18) (Gibco, 15400054) solution was added and treated for five minutes.
(§19) detach from the bottom under an inverted microscope (Zeiss Primovert, Germany), medium containing
(§20) 10% FBS was added. After centrifugation at 300 g for 5 minutes and discarding the medium, 1 mL of
(§21) medium was added and the cells were seeded into 96-well culture dishes as 1x10^4 cells in 100 μL per
(§22) Cell Counting Kit 8 (CCK8; Medchem, 146436) was used to determine cell viability. After adding 20 μL
(§23) of CCK8 solution to each well in the dark, 96-well culture dishes were wrapped with aluminum foil and
(§24) kept in a CO2 incubator at 37 °C for 2 hr. Then, it was automatically read with a microplate reader
(§25) (Chromate) at 450 and 630 nm wavelengths. The following formula was used to determine cell
(§26) % Viability = (Sample Well−Blank) (Negative Control−Blank)×100 (1)
(§27) The half-maximal inhibitory concentration (IC50) was calculated as 50% cell death causing dose
(§28) compared to the control group. All data are given as the mean percent fraction of control ± SEM.
(§29) Statistical analysis was done by one-way analysis of variance (ANOVA), followed by Tukey’s multiple
(§30) comparison tests. IBM SPSS Statistics 22 was used to utilize statistical analysis. […]

[2] = system: human lung carcinoma (A549, CCL‐185) cells; assay: Cytotoxicity, CCK8 cell viability; format: cell-based; conditions: for IC50: Homo sapiens, read-out: Cytotoxic activity IC50
Excerpt: as §1, §2, §3, §4, §5, §6, §7, §8, §9, §10, §11, §12, §13, §14, §15, §16, §17, §18, §19, §20, §21, §22, §23, §24, §25, §26, §27, §28, §29, §30

[3] = Cytotoxicity on healthy cells, CCK8 cell viability; format: cell-based, mouse; conditions: mouse, L929 mouse fibroblast cells, read-out: Cytotoxic activity IC50
Excerpt: as §1, §2, §3, §4, §5, §6, §7, §8, §9, §10, §11, §12, §13, §14, §15, §16, §17, §18, §19, §20, §21, §22, §23, §24, §25, §26, §27, §28, §29, §30

[4] = system: mouse fibroblast cells (L929, CCL‐1); assay: Cytotoxicity on healthy cells, CCK8 cell viability; format: cell-based
Excerpt: as §1, §2, §3, §4, §5, §6, §7, §8, §9, §10, §11, §12, §13, §14, §15, §16, §17, §18, §19, §20, §21, §22, §23, §24, §25, §26, §27, §28, §29, §30

[5] = system: Candida albicans (ATCC-10231); assay: Agar diffusion, zone of inhibition; format: cell-based; conditions: C.albicans, antibiotics at 5 mg mL^−1
Excerpt: (§31) The antibacterial and antifungal activities were reported utilizing the method described by the Clinical & Laboratory Standards Institute.^[ [31], [32] ^] Agar diffusion method was used to determine the antimicrobial activity of the synthesized substances. The media used were mueller hinton agar (MHA) for bacteria and sabouraud‐dextrose agar (SDA) for fungi (Merck), as recommended by the manufacturer.
(§32) The synthesized compounds were initially investigated for their antimicrobial activity to elucidate the potential therapeutic utility against various pathogenic microbes using the agar plate diffusion method. The compounds were tested at a concentration of 50 mg mL^−1, and the antibiotics (ampicillin, kanamycin, and amphotericin B) were used at 5 mg mL^−1. […] K.pneumoniae and B.cereus were resistant to ampicillin, while they were susceptible to kanamycin with inhibition values of 30 and 26 mm, respectively. No antimicrobial activity of the compounds was observed against E.faecalis, S.typhimurium, K.pneumoniae, and for the fungus compared to Amphotericin B (20 mm). […]
(§33) ATCC: American Type Culture Collection; NRRL: Northern Regional Research Laboratory The compounds 2(a-c) obtained could only be completely solubilised with dimethyl sulphoxide (DMSO) and the highest possible stock solutions of 50 mg.mL-1 were prepared. To these wells 50 μl of the previously prepared substances were transferred using sterile micropipette tips. For comparison, Ampicillin and kanamycin antibiotics for bacteria and Amphotericin B antibiotics for fungus were used as positive controls and DMSO was used as negative control. The prepared petri plates were kept at +4°C for about 1 hour and then the bacterial cultures were incubated at 37°C for 18-24 hours and mould cultures at 27-30°C for 48-72 hours. The zones formed were measured millimetrically with callipers. The experiments were performed with three repetitions. […]

[6] = system: Candida albicans (ATCC-10231); assay: MBC/MFC by sub-culture from wells without growth; format: cell-based; conditions: ATCC10231, C.albicans
Procedure: (§34) ATCC: American Type Culture Collection; NRRL: Northern Regional Research Laboratory The compounds 2(a-c) obtained could only be completely solubilised with dimethyl sulphoxide (DMSO) and the highest possible stock solutions of 50 mg.mL-1 were prepared. […]
(§35) 3.1. Determination of Minimum Inhibition Concentration (MIC)
(§36) The minimum inhibition concentration (MIC) values of the compounds 2(a-c) against the test bacteria used in the study were determined according to the broth microdilution method.[1-2] MHB or SDB was used as test medium and bacterial and yeast suspensions were prepared at 0.5 Mc Farland concentration for each test bacteria. Double layer serial dilutions were prepared in "U" type 96-well microtiter plates. Medium+bacteria suspensions containing only medium in the first row, medium+bacteria in the second row and the final concentrations of the synthesised substances in the other rows between 25 mg.mL-1 and […] were added to the wells with a final volume of 200
(§37) μL. Ampicillin, Kanamycin and Amphotericin B standard antibiotics were used as positive controls.
(§38) Bacteria were incubated at 37±0.1 °C and C. albicans at 30±0.1 °C for 24-48 hours and the lowest concentration without growth was determined as MIC. Tests were performed in two parallel runs and mean values were given as a result. […]

[7] = system: Bacillus cereus (ATCC-10876); assay: Agar diffusion, zone of inhibition; format: cell-based; conditions: B.cereus, antibiotics at 5 mg mL^−1
Excerpt: as §31
The synthesized compounds were initially investigated for their antimicrobial activity to elucidate the potential therapeutic utility against various pathogenic microbes using the agar plate diffusion method. The compounds were tested at a concentration of 50 mg mL^−1, and the antibiotics (ampicillin, kanamycin, and amphotericin B) were used at 5 mg mL^−1. […] K.pneumoniae and B.cereus were resistant to ampicillin, while they were susceptible to kanamycin with inhibition values of 30 and 26 mm, respectively. No antimicrobial activity of the compounds was observed against E.faecalis, S.typhimurium, K.pneumoniae, and for the fungus compared to Amphotericin B (20 mm).
(§39) Bacillus cereus (ATCC-10876) […]
as §33

[8] = system: Klebsiella pneumoniae (ATCC-70063); assay: Agar diffusion, zone of inhibition; format: cell-based; conditions: K.pneumoniae, antibiotics at 5 mg mL^−1
Excerpt: as §31, §32
Klebsiella pneumoniae (ATCC-70063)
as §33

[9] = system: Bacillus cereus (ATCC-10876); assay: Broth microdilution MIC; format: cell-based; conditions: B.cereus
Procedure: as §39, §34, §35, §36, §37, §38

[10] = system: Bacillus cereus (ATCC-10876); assay: MBC by sub-culture from wells without growth; format: cell-based; conditions: B.cereus
Procedure: as §39, §34, §35, §36, §37
Bacteria were incubated at 37±0.1 °C and C. albicans at 30±0.1 °C for 24-48 hours and the lowest concentration without growth was determined as MIC. Tests were performed in two parallel runs and mean values were given as a result. In order to estimate “the minimum bactericidal/fungicidal concentrations (MBC/MFC) of the synthesised acrylonitrile derivatives “needed to indicate […] killing of the original inoculum,” 10 μl was taken from the wells with no observed growth and further sub-cultured onto their agar media (MHA and SDA for bacterial and fungal strains, respectively).[3] […]

O=c1[nH]cc(F)c(=O)[nH]1 [5‐FU, 5‐Fluorouracil, reference compound]
IC50 ([1]; MCF‐7, 24 h): 250 µM | IC50 ([1]; MCF‐7, 48 h): 102 µM | decrease in cell viability ([1]; MCF‐7, 24 h, 31.25 μM): 23% | decrease in cell viability ([1]; MCF‐7, 24 h, 62.5 μM): 23% | decrease in cell viability ([1]; MCF‐7, 24 h, 125 μM): 34% | decrease in cell viability ([1]; MCF‐7, 24 h, 250 μM): 50% | decrease in cell viability ([1]; MCF‐7, 24 h, 500 μM): 76% | decrease in cell viability ([1]; MCF‐7, 48 h, 31.25 μM): 46% | decrease in cell viability ([1]; MCF‐7, 48 h, 62.5 μM): 47% | decrease in cell viability ([1]; MCF‐7, 48 h, 125 μM): 52% | decrease in cell viability ([1]; MCF‐7, 48 h, 250 μM): 74% | decrease in cell viability ([1]; MCF‐7, 48 h, 500 μM): 95% | suppressive effect on cell proliferation / viability ([2]; A549, 24 h, 31.25 to 500 μM): did not show any suppressive effect | decrease in cell viability ([2]; A549, 48 h, 250 μM): 17% | decrease in cell viability ([2]; A549, 48 h, 500 μM): 77% | IC50 ([2]; A549, 24 h): > 500 µM | IC50 ([2]; A549, 48 h): 386 µM | IC50 at 24 h ([3]; L929, 24 h): 109 µM | IC50 at 48 h ([3]; L929, 48 h): 33 µM | decrease in cell viability ([4]; L929, 24 h, 31.25 μM): 45% | decrease in cell viability ([4]; L929, 24 h, 62.5 μM): 45% | decrease in cell viability ([4]; L929, 24 h, 125 μM): 51% | decrease in cell viability ([4]; L929, 24 h, 250 μM): 62% | decrease in cell viability ([4]; L929, 24 h, 500 μM): 93% | decrease in cell viability ([4]; L929, 48 h, 31.25 μM): 50% | decrease in cell viability ([4]; L929, 48 h, 62.5 μM): 64% | decrease in cell viability ([4]; L929, 48 h, 125 μM): 68% | decrease in cell viability ([4]; L929, 48 h, 250 μM): 80% | decrease in cell viability ([4]; L929, 48 h, 500 μM): 93%

C[C@@H]1[C@H](O)[C@@H](C)/C=C/C=C/C=C/C=C/C=C/C=C/C=C/[C@H](O[C@@H]2O[C@H](C)[C@@H](O)[C@H](N)[C@@H]2O)C[C@@H]2O[C@](O)(C[C@@H](O)C[C@@H](O)[C@H](O)CC[C@@H](O)C[C@@H](O)CC(=O)O[C@H]1C)C[C@H](O)[C@H]2C(=O)O [Amphotericin B, reference compound]
zone of inhibition [5]: 20 ± 0.71 mm | zone of inhibition at 5 mg/mL ([5]; Candida albicans, ATCC10231): 20 mm | MBC [6]: 250 µg/mL (≈ 271 µM)

NC[C@H]1O[C@H](O[C@H]2[C@H](O)[C@@H](O[C@H]3O[C@H](CO)[C@@H](O)[C@H](N)[C@H]3O)[C@H](N)C[C@@H]2N)[C@H](O)[C@@H](O)[C@@H]1O [Kanamycin, reference compound]
zone of inhibition [7]: 26 ± 1.41 mm | zone of inhibition ([7]; listed as kanamycin): 26 mm | zone of inhibition [8]: 30 ± 0 mm | zone of inhibition ([8]; listed as kanamycin): 30 mm | MIC [9]: 31.25 µg/mL (≈ 64.5 µM) | MBC [10]: 62.5 µg/mL (≈ 129 µM)
